Measured values as given in US11433090B2, “mTOR-inhibitor-containing medicine for treating or preventing ophthalmic symptoms, disorders, or diseases, and application thereof” (The Doshisha, priority 2017, dated 2022).

Assays:
cleaved caspase 3 = assay: Western blot of cleaved caspase 3 after TGF-β2 stimulation in iFECD; assay type: cell-based, human; settings: 3 pmol mTOR siRNA, then TGF-β2 10 ng/ml 24 h, FIG. 8
Description: (§1) The medium was removed from a culture dish in which iFECDs were being cultured, and the cells were supplemented with 1×PBS (−) that was preheated to 37° C., and were washed. This was repeated twice. The cells were supplemented again with 1×PBS (−) and incubated for 3 minutes at 37° C. (5% CO2). After removing the PBS (−), the cells were supplemented with 0.05% Trypsin-EDTA (Nacalai Tesque, 32778-34) and incubated for 5 minutes at 37° C. (5% CO2). The cells were then suspended in a medium, and collected by centrifugation at 1500 rpm for 3 minutes. DMEM (Nacalai Tesque, 08456-36)+10% FBS (Biowest, S1820-500)+1% P/S (Nacalai Tesque, 26252-94) was used as the medium.
iFECDs were seeded on a 12-well plate at a ratio of 1×10^5 cells per well and cultured for 24 hours at 37° C. (5% CO2) (DMEM+10% FBS+1% P/S was used as the medium). After 24 hours, the medium was removed. Rapamycin was added to culture the cells for 24 hours. (DMEM+2% FBS+1% P/S was used as the medium). After 24 hours, the medium was removed. A medium containing 10 ng/ml of Recombinant Human TGF-β2 (Wako, 200-19911) and rapamycin was added to culture the cells for 24 hours. […]
8 μg of the extracted protein was separated by SDS-PAGE and transferred onto a nitrocellulose membrane. […] The detected band strength was analyzed with a lumino image analyzer LAS-4000 mini (Fuji Film) and ImageQuant™ software (GE Healthcare). […]

mTOR = mTOR expression at RNA level in iFECD (PCR, agarose gel electrophoresis); assay type: cell-based, human; settings: 3 pmol mTOR siRNA, FIG. 6
Description: as §1
iFECDs were seeded on a 12-well plate at a ratio of 3×10^4 cells per well and cultured for 24 hours at 37° C. (5% CO2) (medium: DMEM+10% FBS+1% P/S). After 24 hours, the medium was removed. Lipofectamine (invitrogen, 92008) and 3 pmol of mTOR siRNA (Ambion, AS026M0L) were added to culture the cells for 24 hours (medium: OptiMEM-I (invitrogen, 31985-088)). The mTOR siRNA that was used has a sense strand set forth in SEQ ID NO: 1 and an antisense strand set forth in SEQ ID NO: 2. After 24 hours, the medium was removed to culture the cells for 72 hours at 37° C. (5% CO2) (medium: DMEM+10% FBS+1% P/S). After 72 hours, the medium was removed. […]

In the case of “mTOR siRNA: siRNA against mTOR gene (Ambion, AS026M0L); sense strand SEQ ID NO: 1, antisense strand SEQ ID NO: 2 (sense CAUUCGCAUUCAGUCCAUATT; antisense UAUGGACUGAAUGCGAAUGAT; chemistry not given here)”, the “activated form of cleaved caspase-3 (about 17 kDa), western blot” value (cleaved caspase 3) is reported as “hardly observed” and the “mTOR expression, RNA level (PCR)” value (mTOR) is reported as “suppression was found”.
